Source: patent US20230414502A1, “Method for Preparing an Aqueous Nanocrystalline Suspension Containing Nanocrystals of Pharmaceutically Active Ingredient and a Combination of Stabilizers, Aqueous Nanocrystalline Suspension and Methods of Use Thereof” (Vysoka skola chemicko-technologicka v Praze, priority 2022, published 2023)
“Also recorded” adds a separate entry of the source.

How the values were obtained:
[1] = literature values, cell line not given; read-out: IC50 documented for reference drugs; cited from earlier work
[2] = Microscopy of precipitation/recrystallization in DMEM + 10% FBS or PBS, no cells; format: physicochemical; settings: for Solubility in DMSO (in words): 500 μg/mL at most 1% DMSO not reachable; for Recrystallization of API added from DMSO into DMEM + 10% FBS (microscopy): 1% DMSO, 100 μg/mL abiraterone acetate and telmisartan, 500 μg/mL others, no cells
macrophages J774A.1 = test: Microscopy of samples incubated with macrophages; format: cell-based, mouse; settings: for Recrystallization/precipitation of API added from DMSO, tested with J774A.1 (microscopy): 1% DMSO, 100 or 500 μg/mL, DMEM + 10% FBS
Method: For the purpose of the crystallization form DMSO solution study, the J774A.1 cells in the DMEM+10% FBS+1% AA medium were inoculated in a 96 well-plate with a glass-bottom (Cellvis, P96-1.5H-N) with a density of 2×10^4 cells/well and left to adhere overnight. Then, the medium was removed by aspiration, and nanocrystal samples pre-diluted in the fresh medium were added (from 500 μg/mL decreasing in half concentration trend; 90 μL/well). In some cases (abiraterone acetate, telmisartan), it was not possible to reach 500 μg/mL API concentration together with total DMSO content of maximum 1% (1% DMSO is top limit standard in biochemical testing considering the DMSO toxicity and effect on the cell viability and performance) and therefore these substances were tested at 100 μg/mL concentration. Here the great potential of nanocrystals is clearly presented, since the nanocrystal samples were possible to be prepared and tested at 500 μg/mL even in cases where the DMSO solvents would not be accepted for in vitro testing. If possible, all samples were tested at concentration 500 μg/mL (from nanocrystals or from DMSO stock solutions) and incubated in the well-plate for 18 h.

Structure (SMILES) | IC50 [1] | Recrystallization of API added from DMSO into DMEM + 10% FBS (microscopy) [2] | other results
O=c1[nH]cc(F)c(=O)[nH]1 [5-fluorouracil] | 39 µM |  | 
CC(=O)O[C@H]1CC[C@@]2(C)C(=CC[C@@H]3[C@@H]2CC[C@]2(C)C(c4cccnc4)=CC[C@@H]32)C1 [Abiraterone acetate] |  | formation of both new crystals and solid amorphous phase occurs | Solubility in DMSO (in words) [2]: low solubility
CCOc1nc2cccc(C(=O)OC(C)OC(=O)OC3CCCCC3)c2n1Cc1ccc(-c2ccccc2-c2nnn[nH]2)cc1 (centres unmarked) [Candesartan cilexetil] |  | did not form macroscopic crystals | 
COc1cc(/C=C/C(=O)CC(=O)/C=C/c2ccc(O)c(OC)c2)ccc1O [Curcumin] |  |  | Recrystallization/precipitation of API added from DMSO, tested with J774A.1 (microscopy) (macrophages J774A.1): most significant recrystallization/precipitation; also recorded: precipitation/recrystallization from DMSO occurred and was well detectable
CC(C)(C)c1cc(C(C)(C)C)c(NC(=O)c2c[nH]c3ccccc3c2=O)cc1O [Ivacaftor] |  |  | Recrystallization/precipitation of API added from DMSO, tested with J774A.1 (microscopy) (macrophages J774A.1): most significant recrystallization/precipitation; also recorded: precipitation/recrystallization from DMSO occurred and was well detectable; Effect on J774A.1 cells, API added as DMSO solution (macrophages J774A.1; 8-125 μg/mL): causes cell death (membrane blobbing)
COc1cc(C2Oc3cc([C@H]4Oc5cc(O)cc(O)c5C(=O)[C@@H]4O)ccc3OC2CO)ccc1O (some centres unmarked) [Silybinin] | 180 µM |  | 
CCCc1nc2c(C)cc(-c3nc4ccccc4n3C)cc2n1Cc1ccc(-c2ccccc2C(=O)O)cc1 [Telmisartan] |  | did not form macroscopic crystals | Solubility in DMSO (in words) [2]: low solubility
N.N.[Cl][Pt][Cl] [cisplatin] | 181 µM |  | 
